Earlier results on one compound are cited in patent US20050226899A1, “Cosmetic mask composition” (priority 2004, published 2005).

The data set relates to skin. To be noted: lotion, up to 5% by weight retinoic acid.

For the compound `CC1=C(/C=C/C(C)=C/C=C/C(C)=C/C(=O)O)C(C)(C)CCC1` [retinoic acid], the irritative phenomena entry is “some treatments had to be interrupted due to the onset of significant irritative phenomena”.
